Test results reported in patent US20260041773A1, “TOPICAL COMPOSITION COMPRISING A PROSTAGLANDIN ANALOGUE” (DERMALIQ THERAPEUTICS, INC., priority 2019, published 2026).

Key:
[1] = Penetration of latanoprost into minipig skin punches with and without hair (Franz Diffusion Cells, HPLC); assay type: in vitro ADME, Gottingen minipig; details: 2 hours incubation
Experimental: Biological material: abdominal and dorsal full skin, R1 and part of L1 region, of 5 months old Gottingen minipig skin.
For the incubation experiments, Franz Diffusion Cells (FDC) having an inner diameter of 15 mm and an acceptor volume of 12 ml were used. Donor and acceptor chambers were made of glass.
Twelve frozen full thickness skin disks were punched with a diameter of 30 mm. After complete defrosting and equilibration to room temperature, the punches were clamped into Franz diffusion cells (FDC). Each skin disc was dried with wipes, clamped in between the corresponding FDCs having an inner diameter of 15 mm (1.767 cm^2 skin diffusion area) and an acceptor volume of approximately 12 ml. The receiver compartment of the cells was filled with PBS (phosphate buffered saline). Incubation was started by addition of 800 […]1 of test formulation 1-3. […]
Out of each skin disc, 20 skin discs having a diameter of 2 mm were obtained by punching with a disposable biopsy punch, which was put on top of the skin and pressed through the full thickness of the skin. […] The ten punches with hair and without hair obtained by each disc were placed respectively in pre-weighed tubes and the weight was determined. […]
Via HPLC analysis, the amount of latanoprost penetrated in the skin disks after incubation with the test formulations and the amount of latanoprost acid were evaluated and are illustrated in the FIGS. 1-3.

[2] = Penetration of latanoprost solution in hair roots of pig's eyelashes (eyelid incubation, HPLC); assay type: in vitro ADME
Experimental: Test formulation: 0.5 mg/ml latanoprost (Yonsung, Purity 100,2%) in 1-perfluorobutylpentane (Novaliq) and 1% v/v ethanol (Merck, Secco solve dried).
Biological material: fresh pig's eyes with eyelids, not in buffer solution during transport from the slaughterhouse to the laboratory.
The upper eyelids were separated from the eye with scissors, forceps and scalpel. Each eyelid was placed in a glass vessel and incubation with the test formulation was started by addition of 1 ml of formulation. Since the eyelashes had different lengths, before incubation the eyelashes were shortened to standardise the incubation procedure. After incubation according to the plan in Table 3, the eyelids were washed with 1-perfluorobutylpentane eight times and eyelashes were plucked and weighted, as shown in Table 3.
After plucking of the eyelashes, the eyelids were punched with a 4 mm (0,126 cm^2) biopsy tool 5 times (total area 0,628 cm^2). The skin and the conjunctiva were then separated.
Extraction via addition of […] ACN (acetonitrile) to each sample at room temperature on orbital shaker (150 rpm) and minirotator (Biosan maximum level) for 2 hours. Then the samples were centrifuged for 5 minutes at 13000 rpm. The supernatant collected from the samples was stored at −20° C. till analysis.
The amount of latanoprost and of the bio transformed latanoprost acid in the tissues and eyelashes were determined via HPLC. For the calculation, the mean assay values for latanoprost acid were corrected with a factor of 1,1 as the molecular weight of latanoprost acid is lower than the weight of latanoprost.

[3] = Penetration of cortexolone 17α-propionate, Franz Diffusion Cells; assay type: in vitro ADME; details: 1% (w/w) CB-03-01 in F4H5
Experimental: Cortexolone 17α-propionate (developmental code name CB-03-01; 21-Hydroxy-3,20-dioxopregn-4-en-17-yl propionate; CAS Registry Number: 19608-29-8) was dissolved in 1-perfluorbutylpentane (F4H5) to result in a solution of 1% (w/w) CB-03-01 in F4H5.

Row | amount of latanoprost in eyelashes ([2]; FIG. 4, 2, 15, 25 hrs) | SMILES | uptake of latanoprost, skin punches with hair vs without hair ([1]; FIG. 1, microgram per cm^2) | content of latanoprost acid, punches with hair vs without hair ([1]; FIG. 2) | latanoprost acid in eyelashes ([2]; 25 hours incubation, FIG. 5) | amount of latanoprost in skin parts ([2]; FIG. 4, compared with eyelashes) | amount found in the dermis [3] | delivery to layers of the skin ([3]; stratum corneum, epidermis and dermis)
1 | preferred affinity to the eyelashes | CC(C)OC(=O)CCC/C=C\C[C@@H]1[C@@H](CC[C@@H](O)CCc2ccccc2)[C@H](O)C[C@@H]1O [latanoprost] | higher for skin punches with hair than for skin punches without hair | higher content of latanoprost acid than punches without hair | a small amount of latanoprost acid was detected | Comparable lower amount of latanoprost were detected in the skin parts | – | –
2 | – | CCC(=O)O[C@]1(C(=O)CO)CC[C@H]2[C@@H]3CCC4=CC(=O)CC[C@]4(C)[C@H]3CC[C@@]21C [cortexolone 17α-propionate, 21-Hydroxy-3,20-dioxopregn-4-en-17-yl propionate] | – | – | – | – | especially high amounts of cortexolone 17α-propionate were found in the dermis | effectively and rapidly delivered to layers of the skin
